# “And” between values parts separate entries of the source, which are not always exact repeats. Equal entries are not always repeated.
# Test system: 324938-238-R-J1-PDC complex spheroid viability
# Assay: Anticancer human tumor 324938-238-R-J1-PDC patient-derived bladder carcinoma cell line growth inhibition
# Conditions: for viability, T/C: stronger effect = lower value
# Outline: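 Drug combinations with the LSD1 inhibitor iadademstat tested on tumor cells co-cultured as spheroids with endothelial cells and mesenchymal stem cells. Concentrations descended in half-log increments from clinical Cmax or 10 microM.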
# [1] = curve of first compound, second compound 0.1 µM
# [2] = curve of first compound, second compound 0.316 µM
# [3] = curve of first compound, second compound 1 µM
# [4] = curve of first compound, second compound 3.16 µM
# [5] = curve of first compound, second compound 10 µM
# [6] = second compound 0.1 µM, first compound 0.00316 µM
# [7] = second compound 0.1 µM, first compound 0.01 µM
# [8] = second compound 0.1 µM, first compound 0.0316 µM
# [9] = second compound 0.1 µM, first compound 0.1 µM
# [10] = second compound 0.316 µM, first compound 0.00316 µM
# [11] = second compound 0.316 µM, first compound 0.01 µM
# [12] = second compound 0.316 µM, first compound 0.0316 µM
# [13] = second compound 0.316 µM, first compound 0.1 µM
# [14] = second compound 1 µM, first compound 0.00316 µM
# [15] = second compound 1 µM, first compound 0.01 µM
# [16] = second compound 1 µM, first compound 0.0316 µM
# [17] = second compound 1 µM, first compound 0.1 µM
# [18] = second compound 3.16 µM, first compound 0.00316 µM
# [19] = second compound 3.16 µM, first compound 0.01 µM
# [20] = second compound 3.16 µM, first compound 0.0316 µM
# [21] = second compound 3.16 µM, first compound 0.1 µM
# [22] = second compound 10 µM, first compound 0.00316 µM
# [23] = second compound 10 µM, first compound 0.01 µM
# [24] = second compound 10 µM, first compound 0.0316 µM
# [25] = second compound 10 µM, first compound 0.1 µM
# [26] = second compound 0.1 µM, first compound 0.000316 µM
# [27] = second compound 0.1 µM, first compound 0.001 µM
# [28] = second compound 0.316 µM, first compound 0.000316 µM
# [29] = second compound 0.316 µM, first compound 0.001 µM
# [30] = second compound 1 µM, first compound 0.000316 µM
# [31] = second compound 1 µM, first compound 0.001 µM
# [32] = second compound 3.16 µM, first compound 0.000316 µM
# [33] = second compound 3.16 µM, first compound 0.001 µM
# [34] = second compound 10 µM, first compound 0.000316 µM
# [35] = second compound 10 µM, first compound 0.001 µM
# 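Also: spheroids also contain HUVEC and human MSCs and agents combined with iadademstat; spheroids exposed to agents for 7 days before readout.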
smiles,measurement,setting,value
O=C(C=Cn1cnc(-c2cc(C(F)(F)F)cc(C(F)(F)F)c2)n1)NNc1cnccn1 + NC1CCC(NC2CC2c2ccccc2)CC1,IC50,[1],4.66 nM
same,IC50,[2],< 3.16 nM
same,IC50,[3],5.06 nM
same,IC50,[4],4.22 nM
same,IC50,[5],4.01 nM
same,"viability, T/C",[6],55.5%
same,"viability, T/C",[7],39.2%
same,"viability, T/C",[8],19.9%
same,"viability, T/C",[9],10.1%
same,"viability, T/C","second compound 0.1 µM, first compound 0.316 µM",6.81%
same,"viability, T/C","second compound 0.1 µM, first compound 1 µM",3.54%
same,"viability, T/C",[10],49.3%
same,"viability, T/C",[11],37.7%
same,"viability, T/C",[12],19.9%
same,"viability, T/C",[13],9.54%
same,"viability, T/C","second compound 0.316 µM, first compound 0.316 µM",6.12%
same,"viability, T/C","second compound 0.316 µM, first compound 1 µM",3.24%
same,"viability, T/C",[14],56.9%
same,"viability, T/C",[15],40%
same,"viability, T/C",[16],22.6%
same,"viability, T/C",[17],11.8%
same,"viability, T/C","second compound 1 µM, first compound 0.316 µM",5.1%
same,"viability, T/C","second compound 1 µM, first compound 1 µM",3.42%
same,"viability, T/C",[18],53.8%
same,"viability, T/C",[19],38.8%
same,"viability, T/C",[20],22.6%
same,"viability, T/C",[21],12%
same,"viability, T/C","second compound 3.16 µM, first compound 0.316 µM",6.8%
same,"viability, T/C","second compound 3.16 µM, first compound 1 µM",4.08%
same,"viability, T/C",[22],53.4%
same,"viability, T/C",[23],37.1%
same,"viability, T/C",[24],25.7%
same,"viability, T/C",[25],15.3%
same,"viability, T/C","second compound 10 µM, first compound 0.316 µM",7.05%
same,"viability, T/C","second compound 10 µM, first compound 1 µM",4.89%
CC[C@@]1(O)C(=O)OCc2c1cc1n(c2=O)Cc2cc3c(CN(C)C)c(O)ccc3nc2-1 + NC1CCC(NC2CC2c2ccccc2)CC1,IC50,[1],1.54 nM
same,IC50,[2],1.49 nM
same,IC50,[3],1.58 nM
same,IC50,[4],1.42 nM
same,IC50,[5],1.16 nM
same,"viability, T/C",[26],84.7%
same,"viability, T/C",[27],64.7%
same,"viability, T/C",[6],25.5%
same,"viability, T/C",[7],9.38%
same,"viability, T/C",[8],7.9%
same,"viability, T/C",[9],8.7%
same,"viability, T/C",[28],82.5%
same,"viability, T/C",[29],63.2%
same,"viability, T/C",[10],25.3%
same,"viability, T/C",[11],9.31%
same,"viability, T/C",[12],9.04%
same,"viability, T/C",[13],8.45%
same,"viability, T/C",[30],83.2%
same,"viability, T/C",[31],66.3%
same,"viability, T/C",[14],25.4%
same,"viability, T/C",[15],8.84%
same,"viability, T/C",[16],9.27%
same,"viability, T/C",[17],8.86%
same,"viability, T/C",[32],74.5%
same,"viability, T/C",[33],61.1%
same,"viability, T/C",[18],24.9%
same,"viability, T/C",[19],10.1%
same,"viability, T/C",[20],8.96%
same,"viability, T/C",[21],9.71%
same,"viability, T/C",[34],74.2%
same,"viability, T/C",[35],53.7%
same,"viability, T/C",[22],23.9%
same,"viability, T/C",[23],9.28%
same,"viability, T/C",[24],9.85%
same,"viability, T/C",[25],9.19%
O=C(C=Cc1cccc(S(=O)(=O)Nc2ccccc2)c1)NO + NC1CC1c1ccc(-c2cccc(O)c2)cc1,IC50,[1],160 nM
same,IC50,[2],111 nM
same,IC50,[3],87.4 nM
same,IC50,[4],106 nM
same,IC50,[5],29.5 nM
same,"viability, T/C","second compound 0.1 µM, first compound 0.00949 µM",84.3%
same,"viability, T/C","second compound 0.1 µM, first compound 0.03 µM",75.3%
same,"viability, T/C","second compound 0.1 µM, first compound 0.0949 µM",59.1%
same,"viability, T/C","second compound 0.1 µM, first compound 0.3 µM",36.2%
same,"viability, T/C","second compound 0.1 µM, first compound 0.949 µM",24.5%
same,"viability, T/C","second compound 0.1 µM, first compound 3 µM",3.13%
same,"viability, T/C","second compound 0.316 µM, first compound 0.00949 µM",69%
same,"viability, T/C","second compound 0.316 µM, first compound 0.03 µM",64.2%
same,"viability, T/C","second compound 0.316 µM, first compound 0.0949 µM",52.6%
same,"viability, T/C","second compound 0.316 µM, first compound 0.3 µM",34.6%
same,"viability, T/C","second compound 0.316 µM, first compound 0.949 µM",21.9%
same,"viability, T/C","second compound 0.316 µM, first compound 3 µM",2.23%
same,"viability, T/C","second compound 1 µM, first compound 0.00949 µM",62.6%
same,"viability, T/C","second compound 1 µM, first compound 0.03 µM",55.4%
same,"viability, T/C","second compound 1 µM, first compound 0.0949 µM",50.5%
same,"viability, T/C","second compound 1 µM, first compound 0.3 µM",37.2%
same,"viability, T/C","second compound 1 µM, first compound 0.949 µM",20.1%
same,"viability, T/C","second compound 1 µM, first compound 3 µM",1.65%
same,"viability, T/C","second compound 3.16 µM, first compound 0.00949 µM",64.2%
same,"viability, T/C","second compound 3.16 µM, first compound 0.03 µM",65.9%
same,"viability, T/C","second compound 3.16 µM, first compound 0.0949 µM",50%
same,"viability, T/C","second compound 3.16 µM, first compound 0.3 µM",34.4%
same,"viability, T/C","second compound 3.16 µM, first compound 0.949 µM",23.6%
same,"viability, T/C","second compound 3.16 µM, first compound 3 µM",1.52%
same,"viability, T/C","second compound 10 µM, first compound 0.00949 µM",57.7%
same,"viability, T/C","second compound 10 µM, first compound 0.03 µM",47.1%
same,"viability, T/C","second compound 10 µM, first compound 0.0949 µM",40.1%
same,"viability, T/C","second compound 10 µM, first compound 0.3 µM",34.9%
same,"viability, T/C","second compound 10 µM, first compound 0.949 µM",24.6%
same,"viability, T/C","second compound 10 µM, first compound 3 µM",2.48%
Nc1ccccc1NC(=O)c1ccc(CNC(=O)OCc2cccnc2)cc1,"viability, T/C",compound 0.00949 µM,112% and 111%
same,"viability, T/C",compound 0.03 µM,107% and 111%
same,"viability, T/C",compound 0.0949 µM,96.8% and 88.3%
same,"viability, T/C",compound 0.3 µM,63.3% and 59.8%
same,"viability, T/C",compound 0.949 µM,37.7% and 37.5%
same,"viability, T/C",compound 3 µM,9.59% and 7.01%
same,IC50,curve of compound,555 nM and 507 nM
O=C(c1cc(Cc2n[nH]c(=O)c3ccccc23)ccc1F)N1CCN(C(=O)C2CC2)CC1,"viability, T/C",compound 0.0316 µM,100% and 104%
same,"viability, T/C",compound 0.1 µM,100% and 104%
same,"viability, T/C",compound 0.316 µM,107% and 96.3%
same,"viability, T/C",compound 1 µM,87.4% and 80.7%
same,"viability, T/C",compound 3.16 µM,64.5% and 48.9%
same,"viability, T/C",compound 10 µM,40.4% and 31.9%
same,IC50,curve of compound,6260 nM and 3090 nM
Nc1ncn(C2CC(O)C(CO)O2)c(=O)n1 (stereo unspecified),"viability, T/C",compound 0.00316 µM,98.2% and 98.1%
same,"viability, T/C",compound 0.01 µM,90.8% and 96.7%
same,"viability, T/C",compound 0.0316 µM,81% and 89.9%
same,"viability, T/C",compound 0.1 µM,75.9% and 69.5%
same,"viability, T/C",compound 0.316 µM,62.2% and 57.2%
same,"viability, T/C",compound 1 µM,48.6% and 46.9%
same,IC50,curve of compound,927 nM and 722 nM
CC(C)CC(NC(=O)CNC(=O)c1cc(Cl)ccc1Cl)B1OC(=O)CC(CC(=O)O)(C(=O)O)O1 (stereo unspecified) + NC1CCC(NC2CC2c2ccccc2)CC1,IC50,[1],2.3 nM
same,IC50,[2],1.97 nM
same,IC50,[3],1.98 nM
same,IC50,[4],1.72 nM
same,IC50,[5],1.75 nM
same,"viability, T/C",[26],78.5%
same,"viability, T/C",[27],76.7%
same,"viability, T/C",[6],39.9%
same,"viability, T/C",[7],5.51%
same,"viability, T/C",[8],0.09%
same,"viability, T/C",[9],0.14%
same,"viability, T/C",[28],88.5%
same,"viability, T/C",[29],68.9%
same,"viability, T/C",[10],37.8%
same,"viability, T/C",[11],6.24%
same,"viability, T/C",[12],0.11%
same,"viability, T/C",[13],0.14%
same,"viability, T/C",[30],87.1%
same,"viability, T/C",[31],62.5%
same,"viability, T/C",[14],44.2%
same,"viability, T/C",[15],5.29%
same,"viability, T/C",[16],0.06%
same,"viability, T/C",[17],0.13%
same,"viability, T/C",[32],80.2%
same,"viability, T/C",[33],65.2%
same,"viability, T/C",[18],33%
same,"viability, T/C",[19],3.57%
same,"viability, T/C",[20],0.05%
same,"viability, T/C",[21],0.16%
same,"viability, T/C",[34],78.3%
same,"viability, T/C",[35],76.2%
same,"viability, T/C",[22],22.7%
same,"viability, T/C",[23],2.57%
same,"viability, T/C",[24],0.13%
same,"viability, T/C",[25],0.21%

# Source: PubChem BioAssay AID1918935 (Molecular Pharmacology Branch, DTP, NCI, 2023)
